Reference: patent publication US20230145835A1, “Modulators of Alpha-4-beta-7 Integrin and MAdCAM” (48HD Biopharma Inc., priority 2021, published 2023)
Numbered stars: 1 amine (or outer) side, 2 acyl side, 3 side chain; on linkers, the order of the positions; unused ones are H or OH. Bridge positions count the residues as written; N and C are the ends. Square brackets hold non-standard residues; d marks the D form. Peptide text beside a SMILES is read from it. X3 = O=C(/C=N/OCCCCCCOc1cc(C[*:2])cc(C[*:3])c1)[*:1]; X1 = O=C(C=NOCCCCCCOc1cc(C[*:2])cc(C[*:3])c1)[*:1]; X4 = N=C(N)NCCC[C@@H](CN[*:1])C(=O)[*:2]; aIle = CC[C@@H](C)[C@H](N)C(=O)O; tBuAla = CC(C)(C)C[C@H](N)C(=O)O; Cba = N[C@@H](CC1CCC1)C(=O)O; hSer = N[C@@H](CCO)C(=O)O; Nle = CCCC[C@H](N)C(=O)O

Target: T1, rh-integrin α4β7/LPAM-1 (Homo sapiens, UniProt P13612+P26010)
T1 sequence (P13612 34-977 limits assumed): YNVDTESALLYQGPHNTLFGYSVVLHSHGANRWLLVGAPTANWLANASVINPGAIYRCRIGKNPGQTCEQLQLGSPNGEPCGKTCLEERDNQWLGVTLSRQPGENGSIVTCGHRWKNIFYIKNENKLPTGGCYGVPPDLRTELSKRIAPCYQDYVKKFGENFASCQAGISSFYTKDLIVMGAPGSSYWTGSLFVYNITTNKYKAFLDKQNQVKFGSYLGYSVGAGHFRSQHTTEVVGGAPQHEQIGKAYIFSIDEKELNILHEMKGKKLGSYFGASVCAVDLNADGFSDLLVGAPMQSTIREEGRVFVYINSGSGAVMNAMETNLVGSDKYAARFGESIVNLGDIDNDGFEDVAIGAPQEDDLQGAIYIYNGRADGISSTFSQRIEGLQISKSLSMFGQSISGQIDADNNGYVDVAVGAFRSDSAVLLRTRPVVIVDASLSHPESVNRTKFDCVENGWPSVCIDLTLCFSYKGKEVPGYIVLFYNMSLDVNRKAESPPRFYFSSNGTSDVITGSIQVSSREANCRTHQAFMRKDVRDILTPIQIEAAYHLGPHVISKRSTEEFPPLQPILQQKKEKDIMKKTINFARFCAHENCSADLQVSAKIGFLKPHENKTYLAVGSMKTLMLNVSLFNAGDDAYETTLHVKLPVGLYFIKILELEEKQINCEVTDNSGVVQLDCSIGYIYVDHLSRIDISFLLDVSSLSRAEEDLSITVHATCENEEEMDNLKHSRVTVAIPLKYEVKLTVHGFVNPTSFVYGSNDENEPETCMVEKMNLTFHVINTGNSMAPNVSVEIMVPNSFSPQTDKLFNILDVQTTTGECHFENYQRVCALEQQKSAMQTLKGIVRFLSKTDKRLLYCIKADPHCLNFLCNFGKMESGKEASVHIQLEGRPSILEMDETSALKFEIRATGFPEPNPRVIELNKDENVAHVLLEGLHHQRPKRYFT
T1 sequence (P26010 20-723 limits assumed): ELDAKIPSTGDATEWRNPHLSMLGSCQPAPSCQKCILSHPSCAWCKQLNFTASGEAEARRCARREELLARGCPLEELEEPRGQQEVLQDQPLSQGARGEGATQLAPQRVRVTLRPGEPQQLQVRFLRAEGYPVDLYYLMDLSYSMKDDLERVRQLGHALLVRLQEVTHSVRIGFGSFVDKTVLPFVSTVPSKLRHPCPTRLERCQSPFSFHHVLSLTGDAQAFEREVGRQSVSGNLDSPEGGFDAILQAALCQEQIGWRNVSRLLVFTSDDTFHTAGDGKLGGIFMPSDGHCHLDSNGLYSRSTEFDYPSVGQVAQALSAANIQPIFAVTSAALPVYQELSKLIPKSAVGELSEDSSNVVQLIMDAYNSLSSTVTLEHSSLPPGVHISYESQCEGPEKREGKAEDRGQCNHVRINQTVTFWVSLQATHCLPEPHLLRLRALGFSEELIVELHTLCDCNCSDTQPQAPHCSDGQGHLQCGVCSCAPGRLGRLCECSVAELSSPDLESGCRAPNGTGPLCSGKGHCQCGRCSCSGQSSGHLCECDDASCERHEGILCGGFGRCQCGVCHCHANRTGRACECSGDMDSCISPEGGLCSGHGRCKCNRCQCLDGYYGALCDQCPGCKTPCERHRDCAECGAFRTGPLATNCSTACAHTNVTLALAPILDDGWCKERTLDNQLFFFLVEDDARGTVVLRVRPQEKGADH
Test: α4β7-MadCAM Competition ELISA (Example 4)
Assay type: binding
Conditions: IC50, Table 3 Representative compounds; inhibition of MAdCAM binding to coated α4β7
Description: After washing with wash buffer, 200 μL assay buffer was added to each well and incubated for one hour at 28° C. After another wash with wash buffer, 100 μL of a MAdCAM and peptide mixture in assay buffer was added to each well and incubated for one hour at 28° C., followed by washing with wash buffer.

With `CC[C@H](C)[C@@H]1NC(=O)[C@H](CC(=O)O)NC(=O)[C@H](CCOC)NC(=O)[C@@H]2CCCN2C(=O)[C@@H]2CSCc3cc(cc(c3)OCCCCCCO/N=C/C(=O)N[C@@H](CCCNC(=N)N)C(=O)N2)CSC[C@@H](C(N)=O)NC(=O)[C@H](CCC(=O)O)NC(=O)[C@H](Cc2ccc(O)cc2)NC(=O)[C@H](Cc2c[nH]c3ccccc23)NC1=O` [compound 48, TSL6- SRCP{Hse(OMe)} DIWYEC] (RCP[hSer](Me)DIWYEC-NH2; linker N-2-10 via X3) the IC50 was 1.71 µM.

Same assay, conditions: Table 3 Representative compounds; inhibition of MAdCAM binding to coated α4β7; read-out: IC50

Going from `CC[C@@H](C)[C@@H]1NC(=O)/C=N/OCCCCCCOc2cc3cc(c2)CSC[C@H](NC1=O)C(=O)N[C@@H](CCCNC(=N)N)C(=O)N[C@@H]([C@@H](C)O)C(=O)N[C@@H](CC(=O)O)C(=O)N[C@@H](C(C)C)C(=O)N1CCC[C@H]1C(=O)N[C@@H]([C@@H](C)CC)C(=O)N[C@@H](CC(=O)O)C(=O)N[C@H](C(N)=O)CSC3` [compound 66, TSL6- SICRTDVPIDC] ([aIle]CRTDVPIDC-NH2; linker N-2-10 via X3) to `CC(C)C[C@@H]1NC(=O)[C@H](C)NC(=O)[C@@H]2CSCc3cc(cc(c3)OCCCCCCO/N=C/C(=O)N[C@@H](CCCCN)C(=O)N2)CSC[C@@H](C(N)=O)NC(=O)[C@H](CO)NC(=O)[C@@H]2CCCN2C(=O)[C@H](C(C)C)NC(=O)[C@H](CC(=O)O)NC1=O` [compound 59, TSL6- SKCALDVPSC] (KCALDVPSC-NH2; linker N-2-9 via X3), the IC50 falls from 14.4 µM to 4.01 µM (3.6-fold). The second is the more potent here.

Going from `CSCC[C@@H]1NC(=O)[C@@H]2CCCN2C(=O)[C@@H]2CSCc3cc(cc(c3)OCCCCCCO/N=C/C(=O)N[C@@H](CCC(N)=O)C(=O)N2)CSC[C@@H](C(N)=O)NC(=O)[C@H]([C@@H](C)O)NC(=O)[C@@H]2CCCN2C(=O)[C@H](C(C)C)NC(=O)[C@H](CC(=O)O)NC1=O` [compound 28, TSL6- SQCPMDVPTC] (QCPMDVPTC-NH2; linker N-2-9 via X3) to `CC[C@H](C)[C@@H]1NC(=O)[C@H](CC(=O)O)NC(=O)[C@H](CCSC)NC(=O)[C@@H]2CCCN2C(=O)[C@@H]2CSCc3cc(cc(c3)OCCCCCCO/N=C/C(=O)N[C@@H](CCC(N)=O)C(=O)N2)CSC[C@@H](C(N)=O)NC(=O)[C@H]([C@@H](C)O)NC(=O)[C@@H]2CCCN2C1=O` [compound 40, TSL6- SQCPMDIPTC] (QCPMDIPTC-NH2; linker N-2-9 via X3), the IC50 rises from 0.672 µM to 1.27 µM (1.9-fold).

Compared with `C[C@@H](O)[C@@H]1NC(=O)[C@H](CC(=O)O)NC(=O)[C@@H]2CCCN2C(=O)[C@H](Cc2ccc(O)cc2)NC(=O)[C@@H]2CSCc3cc(cc(c3)OCCCCCCO/N=C/C(=O)N[C@@H](CC(=O)O)C(=O)N2)CSC[C@@H](C(N)=O)NC(=O)[C@H](Cc2cnc[nH]2)NC(=O)[C@H](Cc2ccccc2)NC1=O` [compound 79, TSL6- SDCYPDTFHC] (DCYPDTFHC-NH2; linker N-2-9 via X3), `CSCC[C@@H]1NC(=O)[C@@H]2CCCN2C(=O)[C@@H]2CSCc3cc(cc(c3)OCCCCCCO/N=C/C(=O)N[C@@H](C)C(=O)N2)CSC[C@@H](C(N)=O)NC(=O)[C@H](CCC(=O)O)NC(=O)[C@H](CCC(N)=O)NC(=O)[C@H](Cc2c[nH]c3ccccc23)NC(=O)[C@H](C(C)C)NC(=O)[C@H](CC(=O)O)NC1=O` [compound 62, TSL6- SDCHDPPKVC] (ACPMDVWQEC-NH2; linker N-2-10 via X3) is 8.3-fold lower in IC50: 53.5 µM for the first, 6.42 µM for the second. The second is the more potent here.

Compared with `N=C(N)NCCC[C@H]1CNC(=O)CNC(=O)[C@H](Cc2ccc(O)cc2)NC(=O)[C@H](Cc2c[nH]c3ccccc23)NC(=O)[C@H](Cc2c[nH]cn2)NC(=O)[C@@H]2CSCc3cc(cc(c3)OCCCCCCO/N=C/C(=O)N[C@@H](CCC(N)=O)C(=O)N2)CSC[C@@H](C(N)=O)NC(=O)[C@@H](CO)NC1=O` [compound 111, TSL6- SQCHWYGRSC] (QCHWYG[X4][dS]C-NH2; linker N-2-9 via X3), `CC(C)[C@@H]1NC(=O)[C@H](CC(=O)O)NC(=O)[C@H](CC(C)(C)C)NC(=O)[C@@H]2CCCN2C(=O)[C@@H]2CSCc3cc(cc(c3)OCCCCCCO/N=C/C(=O)N[C@@H](CCCNC(=N)N)C(=O)N2)CSC[C@@H](C(N)=O)NC(=O)[C@H](CCC(=O)O)NC(=O)CNC(=O)[C@H](Cc2c[nH]c3ccccc23)NC1=O` [compound 58, TSL6- SRCP{tBuAla} DVWGEC] (RCP[tBuAla]DVWGEC-NH2; linker N-2-10 via X3) is lower in IC50: > 500 µM for the first, 4.01 µM for the second.

Same assay, conditions: competition ELISA, 4 μg/mL α4β7 coated, MAdCAM and peptide mixture, 28° C.; read-out: IC50

Going from `CC(C)C[C@@H]1NC(=O)[C@H](Cc2ccccc2)NC(=O)[C@@H]2CSCc3cc(cc(c3)OCCCCCCON=CC(=O)N[C@@H]([C@@H](C)O)C(=O)N2)CSC[C@@H](C(=O)O)NC(=O)[C@H](CC(N)=O)NC(=O)[C@H](CCCCN)NC(=O)[C@H](C(C)C)NC(=O)[C@H](CC(=O)O)NC1=O` [SEQ ID NO: 10] (TCFLDVKNC-OH; linker N-2-9 via X1) to `CC(C)C[C@@H]1NC(=O)[C@@H]2CCCN2C(=O)[C@@H]2CSCc3cc(cc(c3)OCCCCCCON=CC(=O)N[C@@H](CCCCN)C(=O)N2)CSC[C@@H](C(=O)O)NC(=O)[C@H](CCC(=O)O)NC(=O)[C@H](Cc2ccc(O)cc2)NC(=O)[C@@H]2CCCN2C(=O)[C@H]([C@@H](C)O)NC(=O)[C@H](C)NC1=O` [SEQ ID NO: 72] (KCPLATPYEC-OH; linker N-2-10 via X1), the IC50 rises from 311 µM to > 500 µM.

First: CC(C)(C)C[C@@H]1NC(=O)[C@H](CC(=O)O)NC(=O)[C@H](CC2CCC2)NC(=O)[C@@H]2CCCN2C(=O)[C@@H]2CSCc3cc(cc(c3)OCCCCCCON=CC(=O)N[C@@H](CCCNC(=N)N)C(=O)N2)CSC[C@@H](C(=O)O)NC(=O)[C@H](CCC(=O)O)NC(=O)[C@H](CCC(N)=O)NC(=O)[C@H](Cc2c[nH]c3ccccc23)NC1=O [SEQ ID NO: 105] (RCP[Cba]D[tBuAla]WQEC-OH; linker N-2-10 via X1)
Second: C[C@@H]1NC(=O)[C@@H]2CCCN2C(=O)[C@@H]2CSCc3cc(cc(c3)OCCCCCCON=CC(=O)N[C@@H](CCCCN)C(=O)N2)CSC[C@@H](C(=O)O)NC(=O)[C@H](CCC(=O)O)NC(=O)[C@H](Cc2ccc(O)cc2)NC(=O)[C@@H]2CCCN2C(=O)[C@H]([C@@H](C)O)NC(=O)[C@H](CC(=O)O)NC1=O [SEQ ID NO: 71] (KCPADTPYEC-OH; linker N-2-10 via X1)
The IC50 of the first is lower: 3.89 µM for the first, > 500 µM for the second.

Going from `C[C@@H]1NC(=O)C=NOCCCCCCOc2cc3cc(c2)CSC[C@H](NC1=O)C(=O)N[C@@H](Cc1ccc(O)cc1)C(=O)N1CCC[C@H]1C(=O)N[C@@H](CC(=O)O)C(=O)N[C@@H]([C@@H](C)O)C(=O)N[C@@H](Cc1ccc(O)cc1)C(=O)N[C@@H](Cc1c[nH]cn1)C(=O)N[C@H](C(=O)O)CSC3` [SEQ ID NO: 39] (ACYPDTYHC-OH; linker N-2-9 via X1) to `CC(C)C[C@@H]1NC(=O)[C@@H]2CCCN2C(=O)[C@@H]2CSCc3cc(cc(c3)OCCCCCCON=CC(=O)N[C@@H](CCCCN)C(=O)N2)CSC[C@@H](C(=O)O)NC(=O)[C@H](CO)NC(=O)[C@@H]2CCCN2C(=O)[C@H](C)NC(=O)[C@H](CC(=O)O)NC1=O` [SEQ ID NO: 57] (KCPLDAPSC-OH; linker N-2-9 via X1), the IC50 falls from 111 µM to 1.74 µM (64-fold). The second is the more potent here.

In the case of `CCCC[C@@H]1NC(=O)[C@H](CO)NC(=O)[C@H](CCCNC(=N)N)NC(=O)[C@@H]2CSCC(=O)N[C@@H](CCCNC(=N)N)C(=O)N[C@@H](CSSC[C@@H](C(=O)N[C@@H](Cc3c[nH]c4ccccc34)C(=O)N[C@@H](CCC(N)=O)C(N)=O)NC(=O)[C@H]([C@@H](C)CC)NC(=O)[C@H](CC(=O)O)NC1=O)C(=O)N[C@@H](CO)C(=O)N[C@@H](CC(=O)O)C(=O)N[C@@H]([C@@H](C)O)C(=O)N[C@@H](CC(C)C)C(=O)N2` [SEQ ID NO: 96] ({CH2CO}-RCSDTLCRS[Nle]DICWQ-NH2; disulfide 2-13; thioether N-7), the IC50 is reported as 15.9 µM.
